In patent US6084120A, “β-Alkoxyacrylates against malaria” (Hoffmann-La Roche Inc., priority 1997, dated 2000):
≈ marks a conversion by molar mass, not a printed value. Where two headings read alike, the source gives them in different places.

Assays:
[1] = test system: human-pathogenic Plasmodium falciparum K1; experiment: Growth inhibition of Plasmodium falciparum in vitro, strain K1 (chloroquine-resistant), [G-3H]-hypoxanthin incorporation; format: cell-based; conditions: 72 h
Experimental: (§1) Test method for the determination of the activity against Plasmodium falciparum in vitro
(§2) The preparations are tested on intraerythrocytary stages of Plasmodium falciparum from asynchronous cultures according to the method of Desjardin et al. (Desjardins, R. E. et al: Quantitative assessment of antimalarial activity in vitro by a semiautomated microdilution technique. Antimicrob. Agents Chemother. 16, 710-718, (1979)).
(§3) The culture medium consists of RPMI 1640 with the addition of 25 mM HEPES, 25 mM NaHCO3, 100 μg/ml neomycin and 10% human serum (A^+). Human-A^+ erythrocytes are used as the Plasmodium falciparum host cells. The parasites are maintained at 37° C. in an atmosphere of 3% O2, 4% CO2, 93% N2 and 95% relative humidity.
(§4) In order to determine the activity, the preparations are dissolved in DMSO, pre-diluted in the culture medium to a suitable starting concentration and subsequently titrated-out on to microtitre plates in the 2nd stage over 6-7 steps. After the addition of the parasite culture (0.7% parasitemia in 2.5% erythrocyte suspension) the test plates are incubated under the conditions given above for 72 h. The parasite growth in the different preparation concentrations is determined using [G-^3 H]-hypoxanthin incorporation compared to untreated control cultures on the same test plates. The 50% growth inhibition (IC50) is calculated according to logit regression analysis from the resulting dosage-activity curve.
(§5) The preparations are tested on at least one chloroquine-resistant and one chloroquine-sensitive Plasmodium falciparum strain. Additional sensitive and resistant strains are included for further characterization.

[2] = test system: human-pathogenic Plasmodium falciparum strain NF54; experiment: Growth inhibition of Plasmodium falciparum in vitro, strain NF54 (chloroquine-sensitive), [G-3H]-hypoxanthin incorporation; format: cell-based; conditions: 72 h, read-out: in vitro strain NF 54 IC50 (growth inhibition) (converted)
Experimental: as §1, §2, §3, §4, §5

[3] = test system: Plasmodium berghei (strain ANKA); experiment: Activity against Plasmodium berghei in vivo, reduction of parasitemia in infected mice; conditions: for inhibition in vivo at 100 mg/kg / inhibition in vivo at 10 mg/kg: Plasmodium berghei, 48 h after treatment; for inhibition in vivo at 100 mg/kg / in vivo sc act. % (toxic): single dose 100 mg/kg; for inhibition in vivo at 10 mg/kg: single dose 10 mg/kg
Experimental: Test method for the determination of the activity against Plasmodium berghei in vivo
The preparations are tested on mice infected with malaria pathogens (Plasmodium berghei). Male albino mice (IBM:MORO(SPF), FUELLINSDORF) weighing about 25 g are used as the test animals. They are kept in climatized rooms at 21-22° C. in groups of 5 animals per cage. They receive ad libitum a diet feed with a low PABA content (NAFAG FUTTER" No. 9009 PAB-45, PABA content 45 mg/kg) and drinking water. On the first day of the test (D0) the test animals are infected with Plasmodium berghei (strain ANKA). For this there is used heparinized blood of a donor mouse with about 30% parasitemia, which is diluted with physiological saline such that it contains 10^8 parasitized erythrocytes per ml. 0.2 ml of this suspension is injected intravenously (i.v.) into the mice to be treated and into the control mice. In untreated control animals the parasitemia normally reaches 30-40% on the third day after the infection (D+3) and the test animals die between days +5 and +7.
The substances to be tested are dissolved or suspended in distilled water or in a mixture of 7% Tween 80, 3% alcohol (96%) and water. Usually, 0.25 ml of this solution or suspension is administered once subcutaneously and perorally to groups of 5 test animals. Treatment is effected 24 hours after the infection. 10 control animals are treated in the same manner with solvent or suspension medium per test.
All substances are tested in a first test in a single dosage of 100 or 10 mg/kg. Only those substances which in this test (10 mg/kg) have shown a parasitaemia reduction of more than 90% are used for the titration. Suitable dilutions of the test substance can be used to obtain an accurate titration of the activity.
48 hours after the treatment (D+3) blood smears are prepared from all animals using blood from tail veins and are stained with giemsa. The average erythrocyte infection rate (parasitemiea in %) in the control groups as well as in the groups which have been treated with the test compounds is determined by counting under a microscope. The difference in the average values of the infection rates of control group (100%) and treated groups is calculated and expressed as a percentage reduction (GI%). The ED50 or ED90 is determined mathematically by means of the JMP programme (nonlinear fit). The ED50 (ED90) in mg/kg is that dose which after single administration reduces the average erythrocyte infection rate by 50% (90%) in comparison to the control group.

[4] = po, perorally, read-out: in vivo po act. % (percentage reduction of the parasitemia)
[5] = sc, subcutaneously, read-out: in vivo sc act. % (percentage reduction of the parasitemia)

Row | SMILES | IC50 [1] [µg/mL] | IC50 [2] [µg/mL] | inhibition in vivo at 100 mg/kg [3, 4] [%] | in vivo sc act. % (toxic) ([3]; subcutaneously) | inhibition in vivo at 10 mg/kg [3, 4] [%] | inhibition in vivo at 100 mg/kg [3, 5] [%]
1 | CO/C=C(/C(=O)OC)c1ccccc1CO/N=C(\C)c1cc(C(F)(F)F)cc(C(F)(F)F)c1 [Example 105] | 1.01 (≈ 2.12 µM) | 0.21 (≈ 0.442 µM) |  |  |  | 
2 | CO/C=C(/C(=O)OC)c1ccccc1/C=C/c1ccc(OC)c(OC)c1Cl [Example 136] | 2.9 (≈ 7.46 µM) | 1.04 (≈ 2.67 µM) | 40 | tox |  | 
3 | CO/C=C(/C(=O)OC)c1csc2cccc(/C=C/c3ccccc3)c12 [Example 241] | 7.4 (≈ 21.1 µM) | 1.4 (≈ 3.99 µM) |  |  |  | 
4 | CO/C=C(/C(=O)OC)c1csc2cccc(CN(C)[C@@H](C)c3ccccc3)c12 [Example 222] | 64.3 (≈ 163 µM) | 22.6 (≈ 57.1 µM) |  |  |  | 
5 | CO/C=C(/C(=O)OC)c1csc2cccc(CO/N=C(\C)c3cccc(C(F)(F)F)c3)c12 [Example 238] | 40.9 (≈ 88.2 µM) | 17.5 (≈ 37.8 µM) |  |  |  | 
6 | CO/C=C(/C(=O)OC)c1ccccc1/C=C/C=C/c1ccccc1Br [Example 203, Methyl (E)-2-[o-[(all-E)-4-(o-bromophenyl)-1,3-butadienyl]phenyl]-3-methoxyacrylate] | 0.28 (≈ 0.701 µM) | 0.07 (≈ 0.175 µM) |  |  | 76 | 90
7 | CO/N=C(/C(=O)OC)c1ccccc1C#CC#Cc1ccccc1C(F)(F)F [Example 207] | 25.8 (≈ 67 µM) | 10.8 (≈ 28 µM) |  |  |  | 
8 | CO/C=C(/C(=O)OC)c1csc2cccc(/C=C/c3ccsc3)c12 [Example 243] | 22.6 (≈ 63.4 µM) | 6.7 (≈ 18.8 µM) |  |  |  | 
9 | CON=C(C(=O)OC)c1ccccc1/C=C/C=C/c1ccccc1C(F)(F)F [Example 206, (Z)- or (E)-Methoxyimino-[2-[(1E,2E)-4-(2-trifluoromethylphenyl)-buta-1,3-dienyl]-phenyl]-acetic acid methyl ester] | 1.4 (≈ 3.6 µM) | 0.4 (≈ 1.03 µM) | 46 |  |  | 44
10 | CO/C=C(/C(=O)OC)c1ccccc1CSc1c(F)c(F)c(F)c(F)c1F [Example 11] | 4.9 (≈ 12.1 µM) | 1.17 (≈ 2.89 µM) | 80 | tox |  | 
11 | CO/C=C(/C(=O)OC)c1ccccc1CCCCc1ccc(C(F)(F)F)cc1C(F)(F)F [Example 211] | 1.34 (≈ 2.91 µM) | 0.33 (≈ 0.717 µM) |  |  | 59 | 92
12 | CO/C=C(/C(=O)OC)c1csc2c(C)cccc12 [Example 250] | 550 (≈ 2100 µM) | 184 (≈ 703 µM) |  |  |  | 
13 | CO/N=C(/C(=O)OC)c1ccccc1CO/N=C(\C)c1cccc(C(F)(F)F)c1 [Example 110] | 65.8 (≈ 161 µM) | 20 (≈ 49 µM) |  |  |  | 
14 | CO/C=C(/C(=O)OC)c1csc2cccc(COC(=O)Cc3ccc(Cl)cc3Cl)c12 [Example 233] | 67.3 (≈ 145 µM) | 29.5 (≈ 63.4 µM) |  |  |  | 
15 | CO/C=C(/C(=O)OC)c1ccccc1COc1cnc2cc(Br)cc(C)c2n1 [Example 28] | 19.1 (≈ 43.1 µM) | 17.7 (≈ 39.9 µM) |  |  |  | 
16 | CO/C=C(/C(=O)OC)c1csc2cccc(COC(=O)/C=C/c3cccc(C(F)(F)F)c3)c12 [Example 236] | 175 (≈ 367 µM) | 44.2 (≈ 92.8 µM) |  |  |  | 
17 | CO/C=C(/C(=O)OC)c1ccccc1/C=C/c1cc(OC)c(OC)cc1[N+](=O)[O-] [Example 126] | 3.3 (≈ 8.26 µM) | 1.2 (≈ 3 µM) | 79 |  |  | 76
18 | CO/N=C(/C(=O)OC)c1ccccc1C#C/C=C/c1ccccc1C(F)(F)F [Example 209] | 5.7 (≈ 14.7 µM) | 3.21 (≈ 8.29 µM) |  |  |  | 
19 | CO/C=C(/C(=O)OC)c1ccccc1/C=C/COC1CCCCO1 [Example 251, (E)-3-Methoxy-2-{(E)-2-[(R)- and (S)-3-(tetrahydro-pyran-2-yloxy}-propenyl]-phenyl}-acrylic acid methyl ester] | 111 (≈ 334 µM) | 64.9 (≈ 195 µM) | 40 |  |  | 74
20 | CO/C=C(/C(=O)OC)c1ccccc1/C=C/CSc1ccccc1C(F)(F)F [Example 120] | 2.51 (≈ 6.15 µM) | 1.75 (≈ 4.28 µM) | 46 |  |  | 91
21 | CO/C=C(/C(=O)OC)c1ccccc1/C=C/C=C/c1ccccc1C(F)(F)F [Example 185, Methyl (E)-3-methoxy-2-[o-[(all-E)-4-(alpha,alpha,alpha-trifluoro-tolyl)-1,3-butadienyl]-phenl]acrylate] | 0.15 (≈ 0.386 µM) | 0.06 (≈ 0.154 µM) |  |  | 99 | 100
22 | COC=C(C(=O)OC)c1ccccc1C=CC=Cc1ccc(C(F)(F)F)cc1C(F)(F)F [Example 199, (E)- or (Z)-2-[2-[4-(2,4-bis-trifluoromethyl-phenyl)-buta-1,3-dienyl]phenyl]-3-methoxy-acrylic acid methyl ester] | 0.13 (≈ 0.285 µM) | 0.06 (≈ 0.131 µM) |  |  | 100 | 100
23 | CO/N=C(/C(=O)OC)c1ccccc1CO/N=C(\C)c1cc(C(F)(F)F)cc(C(F)(F)F)c1 [Example 111] | 4.3 (≈ 9.03 µM) | 1.6 (≈ 3.36 µM) |  |  |  | 
24 | CO/N=C(/C(=O)OC)c1ccccc1-c1ccc(-c2ccccc2C(F)(F)F)s1 [Example 217] | 60.8 (≈ 145 µM) | 23.7 (≈ 56.5 µM) |  |  |  | 
25 | CO/C=C(/C(=O)OC)c1ccccc1CCCCc1ccccc1C(F)(F)F [Example 210] | 1.35 (≈ 3.44 µM) | 0.85 (≈ 2.17 µM) | 82 |  |  | 99
